Assay results reported in article PMC7585200, “Methanosarcina acetivorans contains a functional ISC system for iron-sulfur cluster biogenesis” (BMC Microbiology, 2020).

Assays:
[1] = target: T1, IscS2 (Methanosarcina acetivorans, UniProt Q8TME0); test: sulfide release, methylene blue assay ([…] nm); format: biochemical; conditions: 1 mM L-cysteine, 1 mM DTT, 50 mM Tris pH 7.5, 25 °C, with or without 50 μM PLP
T1 construct: gene iscS; full-length, N-terminal His6-tag (pET28a) cut with thrombin, E. coli Rosetta (DE3) pLacI; homodimer (84 kDa by SEC)
T1 sequence (Q8TME0 entry or part of it): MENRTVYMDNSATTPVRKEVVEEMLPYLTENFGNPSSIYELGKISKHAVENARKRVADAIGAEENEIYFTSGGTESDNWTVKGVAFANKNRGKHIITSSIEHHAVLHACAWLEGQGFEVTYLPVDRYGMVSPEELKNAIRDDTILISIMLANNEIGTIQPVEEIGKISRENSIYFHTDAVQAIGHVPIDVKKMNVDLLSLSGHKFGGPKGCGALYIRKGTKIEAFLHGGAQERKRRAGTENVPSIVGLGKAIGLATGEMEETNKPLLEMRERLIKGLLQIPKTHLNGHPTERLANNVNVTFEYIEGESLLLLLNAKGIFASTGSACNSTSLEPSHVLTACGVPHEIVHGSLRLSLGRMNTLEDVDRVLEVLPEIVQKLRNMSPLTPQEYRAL

[2] = target: Methanosarcina acetivorans IscS2 (MA2718), reconstituted with PLP (Methanosarcina acetivorans); test: SEC; IscS2^PLP (3.3 mg loaded) on HiPrep 16/60 Sephacryl S-200, 0.5 ml/min, 50 mM Tris pH 8.0, 150 mM NaCl, 2 mM DTT, 10% glycerol; calibrated with standard proteins; calculated 84 kDa
[3] = target: T1, IscS2; test: UV-visible spectrum ([…] nm) and cysteine desulfurase activity with and without PLP; format: biochemical; conditions: PLP reconstitution at pH 7.2, 25 °C; assay 50 mM Tris pH 7.5, 1 mM L-cysteine, 1 mM DTT, 50 μM PLP

Molecule: N[C@@H](CS)C(=O)O [L-cysteine]
- sulfide release, methylene blue assay (670 nm) [1]: Purified IscS2 was able to remove sulfur from L-cysteine

Molecule: Methanosarcina acetivorans IscS2 (MA2718), reconstituted with PLP (enzyme)
- stoichiometry N [2]: 2

Molecule: Cc1ncc(COP(=O)(O)O)c(C=O)c1O [PLP]
- UV-visible spectrum (420 nm) and cysteine desulfurase activity with and without [3]: these results reveal that IscS2 is a PLP-dependent cysteine desulfurase
